# Source: patent publication US10328075B2, “Method of treatment and compounds for use therein” (Baker Heart and Diabetes Institute, priority 2015, dated 2019)
# Read-outs that look alike come from different tables or passages of the source.
# How the values were obtained:
# hFPR1 [1] = target: T1, hFPR1 (Homo sapiens, UniProt P21462); assay: Quantification of biased agonism (operational model) at hFPR1 in CHO cells; type: cell-based; settings: for Bias (away from Ca2+i), hFPR1-FlpInCHO cells in vitro: Table 9
# T1 construct: expressed in transfected cells
# T1 sequence (P21462 1-350): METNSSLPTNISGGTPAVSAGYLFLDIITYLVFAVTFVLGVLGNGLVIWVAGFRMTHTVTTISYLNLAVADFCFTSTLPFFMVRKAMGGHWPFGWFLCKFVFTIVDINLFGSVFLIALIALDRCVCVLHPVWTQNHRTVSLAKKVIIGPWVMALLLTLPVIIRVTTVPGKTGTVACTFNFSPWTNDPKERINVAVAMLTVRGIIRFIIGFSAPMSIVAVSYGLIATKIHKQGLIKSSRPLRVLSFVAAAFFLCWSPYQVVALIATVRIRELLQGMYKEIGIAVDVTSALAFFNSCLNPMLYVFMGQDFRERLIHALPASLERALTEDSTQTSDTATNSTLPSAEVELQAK
# Text: To quantify biased agonism mediated by each agonist across the various pathways ([Ca^2+], mobilization, pERK1/2, Akt1/2/3 and inhibition of cAMP accumulation), agonist concentration-response curves were refitted using the operation model normalized to the transduction ratio of a reference agonist (in this case, BIDI-002) as described previously (Stewart G D et al., 2009). Under these conditions, if the test agonist and the reference agonist activate the two pathways through a common receptor conformation, the log [bias factor] should be 0.0 (or bias factor different from 1.0), irrespective of differences in response amplification between pathways. In contrast, significant deviation of log [bias factor] from 0.0 (or bias factor different from 1.0) indicates the involvement of distinct conformations for the different agonists. All affinities, potencies, efficacies, and cooperativity parameters were estimated as logarithms (Christopoulos, 1998). Results are expressed as means±S.E. unless otherwise stated. Statistical analyses were by Student's t test, or one-way ANOVA followed by Dunnett's Comparison or Tukey's post-hoc test, as appropriate. Values of p<0.05 were considered statistically significant.
# A “transduction ratio” is firstly derived for each response (τ/KA, where τ represents efficacy, and KA affinity, of the agonist for each GPCR conformational state), extracted from each concentration-response curve. “Bias factors” (ΔΔ(τ/KA)) were then calculated by normalizing the transduction ratio to a reference ligand (in this case, Cmpd43) and reference pathway, which here was Akt1/2/3(Thr308) phosphorylation. Lastly, bias factors were plotted on a ‘web of bias’ to visualize the potential for biased agonism. […] Under these conditions, if the test agonist and the reference agonist activate the two pathways through a common receptor conformation, the log [bias factor] should be 0.0 (i.e. the bias factor 1.0), irrespective of differences in response amplification between pathways. In contrast, significant deviation of log [bias factor] away from 0.0 (i.e. where the bias factor is different to 1.0) indicates the involvement of distinct conformations for the different agonists. All affinities, potencies, efficacies, and cooperativity parameters were estimated as logarithms (Kenakin et al. 2012).
# Five signaling pathways were examined, namely pERK1/2-phosphorylation, Akt1/2/3(Ser473)-phosphorylation, Akt1(Thr308)-phosphorylation, increases in Ca2+i and inhibition of forskolin-induced cAMP accumulation. An operational model of agonism was fitted to each concentration-response curve to estimate a transduction ratio (τ/KA) for each agonist, at each pathway assessed, as described (FIG. 21B) (Kenakin et al. 2012). Transduction ratios were normalized to a reference agonist (Cmpd43) and a reference pathway (Akt1/2/3(Thr308)-phosphorylation), generating bias factors and therefore allowing quantitative cross-pathway comparison for each agonist.
# hFPR1 [2] = target: T1, hFPR1; assay: [Ca2+]i mobilization in FlpIn-CHO cells stably expressing hFPR1; type: cell-based; design: Calcium Rmax: unit not given here; settings: for Emax: Flp-In-CHO
# Text: cDNDA construct and generation of stable cell lines: cDNA in pcDNA3.1^+ encoding the human formyl peptide receptors (FPR) subtypes, hFPR1, hFPR2 and hFPR3 was obtained from Invitrogen. The sequences for 3 hFPR receptors were amplified by PCR and cloned into the Gateway entry vector, pDONR202™, using the BP clonase enzyme mix, according to the manufactures' instructions (Invitrogen Inc, Carlsbad, Calif., USA). All hFPR receptors constructs in pDONR201™ were subsequently transfected into the pEF5/FRT/V5/dest vector using the LR clonase enzyme mix (Invitrogen). Receptor constructs (pEF5/FRT/V5/dest) were used to transfect FIp-In CHO cells as described previously (Valant C et al., PNAS, 2014). Cells were selected using 500 μg/mL hydromycin to generate cell lines stably expressing each receptor construct. Cells were maintained and cultured in high glucose DMEM supplemented with 10% FBS, 16 mM HEPES and 500 μg/mL hydromycin at 37° C. under a humidified atmosphere containing 5% CO2.
# In the various assays described below, cells were plated into 96-well transparent cell culture plates at 4×10^4 cells per well, cultured overnight in serum-free media at 37° C. in 5% CO2.
# Intracellular calcium mobilization: Intracellular calcium mobilization was assayed as described previously (Keov, P et al., 2014). Briefly, cells were washed once using HEPES buffered saline (HBS) solution [150 mM NaCl, 2.2 mM CaCl2, 2.6 mM KCl, 1.2 mM MgCl2, 10 mM HEPEs, 10 mM D-Glucose, 0.5% (w/v) bovine serum albumin (BSA) and 4 mM probenecid] at pH 7.4, then treated with Fluo-4-AM (1 μM, in HBS/BSA/probenecid) for 60 min at 37° C. in 5% CO2 in the dark. Cells were then further washed and placed in HBS/BSA/probenecid solution for ligation addition and assay using the FLEXstation 3 plate reader (Molecular Devices, Sunnyvale, Calif.). For all experiments, peak change in fluorescence signal was normalized to the cellular response to 100 μM ATP, which was used as an internal positive control.
# Data analysis: All data were analysed using GraphPad Prism 6.0 (GraphPad Software, San Deigo, Calif., USA). Where appropriate, concentration-response curves were fitted to derive the maximal agonist effect (Emax), and the ligand potency estimate (pEC50), where Emax is the maximal possible response of the system (not the agonist), basal is the basal level of response in the absence of agonist, and pEC50 is the negative logarithm of the agonist concentration that gives a response halfway between Emax and basal.
# In the present study, FIp-IN CHO cells and Gateway plasmid were obtained from Invitrogen Inc (Carlsbad, Calif., USA). The sequences for all 3 known human FPRs (hFPR1, hFPR2 and hFPR3) were amplified by PCR and cloned into the Gateway entry vector, pDONR202TM, using the BP clonase enzyme mix, according to the manufacturers' instructions. The hFPR pDONR201TM constructs were subsequently transfected into the pEF5/FRT/V5/dest vector using the LR clonase enzyme mix (Invitrogen). Receptor constructs (pEF5/FRT/V5/dest) were used to transfect FIp-IN CHO cells, as described previously (Valant et al. 2014). Cells were selected using 500 μg/mL hydromycin to generate cell lines stably expressing each human receptor construct. Cells were maintained and cultured in high glucose Dulbecco's modified eagle medium (DMEM) supplemented with 10% fetal bovine serum (FBS, from JRH Biosciences, Lenexa, Kans., USA) and 500 μg/mL hydromycin B (Invitrogen Inc) at 37° C. under a humidified atmosphere containing 5% CO2. Cell were plated into 96-well transparent cell culture plates at 4×10^4 cells per well, cultured overnight in serum-free media at 37° C. in 5% CO2.
# (ii) Intracellular Ca2+ mobilization: Intracellular Ca2+ mobilization was determined in stably-transfected recombinant hFPR CHO cells, as described previously (Valant et al. 2014).
# [3] = Table 9, read-out: potency (pEC50) Ca^2+i, hFPR1-FlpInCHO cells in vitro (converted)
smiles,measurement,setting,value
CC(C)C1C(NC(=O)Nc2ccc(Cl)cc2)C(=O)N(c2ccccc2)N1C (centres unmarked) [BIDI-002],"Bias (away from Ca2+i), hFPR1-FlpInCHO cells in vitro",hFPR1 [1],No
same,"Preference to Akt phosphorylation, ERK phosphorylation and cAMP accumulation (degree of bias)","hFPR1 [1]; operational model, relative to BIDI-002, hFPR receptors",approximately 20 fold
same,Emax,"hFPR1 [2]; Table 1, percentage of [Ca^2+]i mobilization elicited by ATP, read-out: Emax (%), [Ca^2+]i mobilization, hFPR1-Flpln-CHO",43 ± 6%
same,Emax,"hFPR1 [2]; Table 8, percent of response elicited by ATP, read-out: Emax, [Ca^2+]i mobilization, hFPR1-Flpln-CHO",43 ± 6%
same,EC50,"hFPR1 [2]; Table 1, read-out: pEC50, [Ca^2+]i mobilization, hFPR1-Flpln-CHO (converted)",11 nM
same,"ΔLog(τ/KA), [Ca^2+]i mobilization, hFPR1-Flpln-CHO","hFPR1 [2]; Table 8, normalized transduction coefficient, reference agonist Cmpd43",0.0
same,EC50,"hFPR1 [2]; Table 8, read-out: pEC50, [Ca^2+]i mobilization, hFPR1-Flpln-CHO (converted)",10 nM
same,"Log(τ/KA), [Ca^2+]i mobilization, hFPR1-Flpln-CHO","hFPR1 [2]; Table 8, transduction coefficient",8.0 ± 0.2
same,EC50,hFPR1 [2]; [3],11 nM
Cc1cc(Cc2cccnc2)c(=O)n(CC(=O)Nc2ccc(Cl)cc2)n1 [MIPS-0010396],"Bias (away from Ca2+i), hFPR1-FlpInCHO cells in vitro",hFPR1 [1],Strong
same,Biased agonism / bias away from Ca2+i,hFPR1 [1]; in words,displays Ca2+i bias
same,EC50,hFPR1 [2]; [3],33100 nM
same,Calcium Rmax,"hFPR1 [2]; Table 10, receptor not given, ND = Not detectable",22 ± 2
same,EC50,"hFPR1 [2]; Table 10, receptor not given, ND = Not detectable, read-out: Calcium pEC50 (converted)",33100 nM
